Results taken from patent publication US10517889B2, “Modulators of SMAD7 expression” (Ionis Pharmaceuticals, Inc., priority 2017, dated 2019).
“And” between values parts separate entries of the source, which are not always exact repeats. Equal entries are not always repeated. Strand notation (5' to 3'): a small letter for the sugar, then the base; units joined by * are phosphorothioate-linked, units joined directly phosphodiester-linked; [ ] holds rarer units or linkages, { } end groups; capitals alone tell only the bases. k = constrained ethyl (cEt); [5mC] = 5-methylcytosine; d = 2'-deoxy (DNA)

test system: human SMAD7 mRNA; assay: Antisense inhibition of human SMAD7 mRNA expression in Hep3B cells by 3-10-3 cEt gapmers, 10,000 nM, electroporation (Example 2); assay type: cell-based; settings: Hep3B cells, 10,000 nM antisense oligonucleotide, electroporation, approximately 24 hours, RT-PCR primer probe set RTS5062, relative to untreated control cells
Method in brief: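 SMAD7 mRNA was measured by real-time PCR (RTS5062) with RiboGreen total-RNA normalization, about 24 h after 10,000 nM gapmer was delivered by electroporation into Hep3B cells at 20,000 per well. Gapmers were 16-mer 3-10-3 cEt, fully phosphorothioate; values are % inhibition versus untreated controls.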

Substance	% Inhibition [%]
799894 (antisense kT*k[5mC]*k[5mC]*d[5mC]*dA*dA*d[5mC]*dT*dG*dG*dG*d[5mC]*dA*kG*k[5mC]*kT) [compound 799894]	2
799992 (kG*kG*k[5mC]*dA*d[5mC]*dG*dG*d[5mC]*d[5mC]*dG*d[5mC]*d[5mC]*dT*k[5mC]*k[5mC]*kT; antisense) [compound 799992]	9
800011 (k[5mC]*kT*kT*d[5mC]*dA*dG*d[5mC]*d[5mC]*dT*dG*dT*dG*dT*kT*kT*kG; antisense) [compound 800011]	21

same assay, conditions: Hep3B cells, electroporation with 10,000 nM antisense oligonucleotide, approximately 24 hours, RTS5062, percent inhibition of SMAD7 mRNA relative to untreated control cells

Substance	% Inhibition [%]
799724 (antisense kA*kA*k[5mC]*dT*dT*dG*dG*dG*d[5mC]*dA*dA*dG*dG*kA*k[5mC]*kA) [compound 799724]	24
799279 (antisense kA*k[5mC]*k[5mC]*dT*dT*dG*dT*d[5mC]*dA*d[5mC]*d[5mC]*d[5mC]*dG*kT*k[5mC]*kT) [compound 799279]	48
799629 (kT*kA*k[5mC]*dA*d[5mC]*dA*d[5mC]*dA*d[5mC]*dA*dA*dG*d[5mC]*kT*kT*kG; antisense) [compound 799629]	24
799528 (k[5mC]*kG*kG*dA*dT*dA*d[5mC]*d[5mC]*dA*dG*dG*dT*dG*kG*kT*kT; antisense) [compound 799528]	17
799744 (antisense kA*kA*kA*dG*dA*dA*dA*dA*dT*dG*dG*d[5mC]*d[5mC]*kT*kA*k[5mC]) [compound 799744]	1
799746 (antisense kA*kA*kT*dG*dG*dG*dA*dA*dA*dT*dA*dA*dG*kG*k[5mC]*kG) [compound 799746]	59

same assay, conditions: Hep3B cells, electroporation with 10,000 nM antisense oligonucleotide, approximately 24 hours, SMAD7 mRNA by RT-PCR (RTS5062), relative to untreated control cells

Substance	% Inhibition [%]
790497 (kG*kT*kT*d[5mC]*dG*d[5mC]*dA*dG*dA*dG*dT*d[5mC]*dG*kG*k[5mC]*kT; antisense) [compound 790497]	23
798816 (k[5mC]*k[5mC]*kA*d[5mC]*dG*d[5mC]*dA*d[5mC]*d[5mC]*dA*dG*dT*dG*kT*kG*kA; antisense) [compound 798816]	24
798879 (kA*k[5mC]*kG*dG*d[5mC]*dT*dG*d[5mC]*dT*dG*d[5mC]*dA*dT*kA*kA*kA; antisense) [compound 798879]	57
798828 (kA*kT*k[5mC]*d[5mC]*dA*dG*dA*dG*dA*dG*dG*dG*d[5mC]*kT*k[5mC]*k[5mC]; antisense) [compound 798828]	18
798847 (kT*kT*kG*d[5mC]*dT*d[5mC]*d[5mC]*dG*d[5mC]*dA*d[5mC]*d[5mC]*dT*kT*k[5mC]*kT; antisense) [compound 798847]	24
799512 (antisense kG*kT*kT*dA*dA*dT*dG*dA*dG*dG*dA*dT*dA*kA*kT*kG) [compound 799512]	16
830015 (antisense kG*k[5mC]*kT*dG*dG*dT*dG*d[5mC]*d[5mC]*dA*dG*dT*d[5mC]*kT*k[5mC]*kA) [compound 830015]	56
830101 (kG*k[5mC]*k[5mC]*d[5mC]*dG*d[5mC]*dT*d[5mC]*dT*d[5mC]*dA*dG*d[5mC]*k[5mC]*kA*kG; antisense) [compound 830101]	46
798721 (antisense kG*k[5mC]*k[5mC]*d[5mC]*dA*dG*dG*d[5mC]*dA*dG*d[5mC]*dA*dT*k[5mC]*k[5mC]*kA) [compound 798721]	41
799413 (antisense kA*kT*kT*dA*d[5mC]*dT*dG*dA*dT*dG*d[5mC]*dT*dA*kA*kA*kT) [compound 799413]	34
799452 (antisense kA*kA*kA*dA*dG*dA*dA*d[5mC]*dA*d[5mC]*dA*dG*d[5mC]*kA*k[5mC]*kT) [compound 799452]	44
798850 (k[5mC]*kA*kG*d[5mC]*dT*dG*dG*dA*dT*dG*d[5mC]*d[5mC]*dG*k[5mC]*kA*kG; antisense) [compound 798850]	12
798665 (k[5mC]*kA*kG*dT*d[5mC]*dT*d[5mC]*d[5mC]*d[5mC]*dG*dG*dA*dG*kG*k[5mC]*k[5mC]; antisense) [compound 798665]	7
798902 (kT*kG*kA*d[5mC]*d[5mC]*dT*d[5mC]*dT*dA*dG*d[5mC]*d[5mC]*dA*kG*k[5mC]*kA; antisense) [compound 798902]	54
830069 (kA*kA*kG*dG*dT*dA*dA*dG*d[5mC]*d[5mC]*dA*dG*d[5mC]*kT*k[5mC]*k[5mC]; antisense) [compound 830069]	51

same assay, conditions: Hep3B cells, electroporation with 10,000 nM antisense oligonucleotide, approximately 24 hours, primer probe set RTS5062, relative to untreated control cells

Substance	% Inhibition [%]	% inhibition of SMAD7 mRNA expression
790545 (kA*kA*kA*dG*dA*dG*dT*dT*dT*dG*d[5mC]*dA*dT*kG*kA*kA; antisense) [compound 790545]	24	
799383 (antisense k[5mC]*kA*k[5mC]*dA*dA*dA*dA*dA*d[5mC]*d[5mC]*dA*dA*dG*kG*kT*kT) [compound 799383]		40%
798924 (kA*kG*kT*dT*dT*dG*dA*dA*dG*dT*dG*dT*dG*kG*k[5mC]*k[5mC]; antisense) [compound 798924]	43	
798723 (antisense k[5mC]*kG*k[5mC]*d[5mC]*dT*dT*dG*d[5mC]*d[5mC]*d[5mC]*dA*dG*dG*k[5mC]*kA*kG) [compound 798723]		0%
798939 (antisense kA*k[5mC]*kG*dA*d[5mC]*d[5mC]*dA*dA*dA*dG*dA*dG*dT*kT*kT*kG) [compound 798939]	46	
799166 (antisense kA*kA*k[5mC]*dA*dG*dT*dG*dT*d[5mC]*dG*dA*dA*dG*kT*kA*kT) [compound 799166]		21%
799043 (kA*kG*k[5mC]*d[5mC]*dG*dT*dG*d[5mC]*dT*d[5mC]*d[5mC]*dT*dG*kG*k[5mC]*kA; antisense) [compound 799043]		0% and 10%
790489 (k[5mC]*kT*k[5mC]*dT*dT*dG*dA*d[5mC]*dT*dT*d[5mC]*d[5mC]*dG*kA*kG*kG; antisense) [compound 790489]		0%
798728 (antisense k[5mC]*kT*kT*dT*dG*dG*d[5mC]*dA*d[5mC]*d[5mC]*dT*d[5mC]*dG*k[5mC]*kA*k[5mC]) [compound 798728]		41%
798982 (antisense k[5mC]*kT*kT*d[5mC]*dA*dT*dA*d[5mC]*dA*d[5mC]*dT*dG*dT*kG*kT*kT) [compound 798982]	45	
798932 (antisense k[5mC]*kT*k[5mC]*dA*dG*dG*dA*dG*dG*dA*dA*dA*dA*kT*kA*kT) [compound 798932]		0%
798672 (antisense kG*kG*k[5mC]*dA*dG*dG*dA*dG*d[5mC]*dG*dG*d[5mC]*dG*kG*k[5mC]*kG) [compound 798672]		6%
799476 (antisense kG*k[5mC]*kT*d[5mC]*dA*dA*dA*dG*dG*dG*d[5mC]*d[5mC]*dA*k[5mC]*k[5mC]*k[5mC]) [compound 799476]		0%
799042 (kT*kG*k[5mC]*dT*d[5mC]*d[5mC]*dT*dG*dG*d[5mC]*dA*dG*d[5mC]*kT*kG*k[5mC]; antisense) [compound 799042]	33	
798949 (antisense kA*kG*kA*dG*d[5mC]*dG*dA*dA*dA*d[5mC]*dA*dA*dA*kA*k[5mC]*kA) [compound 798949]		55%
799056 (antisense k[5mC]*kG*k[5mC]*dT*dG*d[5mC]*dT*d[5mC]*dA*dG*dA*dA*dG*k[5mC]*k[5mC]*kT) [compound 799056]	28	

same assay, conditions: Hep3B cells, electroporation, 10,000 nM antisense oligonucleotide, approximately 24 hours, RTS5062, relative to untreated control cells

Substance	% inhibition of SMAD7 mRNA expression [%]
799675 (antisense kT*k[5mC]*k[5mC]*d[5mC]*dA*dG*dT*dT*d[5mC]*dA*dT*dG*dA*kT*k[5mC]*kA) [compound 799675]	0
799699 (antisense k[5mC]*kA*kA*dA*dA*d[5mC]*dA*dG*dT*dG*dG*dA*d[5mC]*k[5mC]*kA*kT) [compound 799699]	57
799833 (antisense kT*kT*kT*d[5mC]*dT*dG*dA*dA*d[5mC]*dA*dG*dA*dG*kT*k[5mC]*k[5mC]) [compound 799833]	39

same assay, conditions: SMAD7 mRNA, Hep3B cells, 10,000 nM antisense oligonucleotide, electroporation, approximately 24 hours, primer probe set RTS5062, relative to untreated control cells

Substance	% Inhibition [%]
790754 (k[5mC]*kT*kA*dA*dG*d[5mC]*dT*dA*d[5mC]*dT*dT*dG*dG*kT*kT*kT; antisense) [compound 790754]	38
829736 (antisense kG*kG*kA*dG*d[5mC]*dG*dA*dA*d[5mC]*dA*dT*dG*dA*k[5mC]*k[5mC]*kT) [compound 829736]	41
801138 (antisense kG*kT*kT*dA*dG*dG*dA*d[5mC]*d[5mC]*dT*dG*dG*dG*kA*kA*k[5mC]) [compound 801138]	6
829739 (antisense kT*kG*k[5mC]*dT*dA*dA*dG*dG*dA*dG*d[5mC]*dG*dA*kA*k[5mC]*kA) [compound 829739]	44
790529 (kA*kG*k[5mC]*dT*dG*dA*dT*d[5mC]*dT*dG*d[5mC]*dA*d[5mC]*kG*kG*kT; antisense) [compound 790529]	65

same assay, conditions: SMAD7 mRNA, Hep3B cells, electroporation with 10,000 nM antisense oligonucleotide, approximately 24 hours, primer probe set RTS5062, relative to untreated control cells

Substance	% Inhibition [%]
829927 (kA*kA*kG*dT*d[5mC]*dT*dA*dA*dA*d[5mC]*dA*dT*dG*k[5mC]*kT*k[5mC]; antisense) [compound 829927]	64
829962 (k[5mC]*kT*kG*dA*dT*dT*dA*dT*dT*dA*dA*dT*dG*kG*kT*k[5mC]; antisense) [compound 829962]	19
